For one assay, the target named is SSTR3 (Homo sapiens, UniProt P32745). The assay can be described thus: SSTR receptor binding affinity (Ki), SSTR3. Particulars: read-out: SSTR Specificity Ki SSTR3.
Assay [1] concerns medullary thyroid carcinoma primary cultures. In words: Calcitonin secretion by MTC primary cultures (IRMA). Conditions: 10^−8 M, six hours. Format: cell-based, human. The procedure: Primary cultured cells from 18 selected MTC samples were incubated in ninety six well plates for six hours with each SSTR agonist at 10^−8 M. Control cells were treated with vehicle solution. Calcitonin levels in the conditioned medium were measured by immunoradiometric assay (IRMA) among eight replicates in the conditioned medium from treated and untreated (control) primary cultured cells. […] Data are expressed as the mean±SE percent hormone secretion inhibition vs. untreated control cells. *P<0.05 and **P<0.01 vs. control.
(§1) Tissue samples were surgically removed in accordance with the guidelines of the local comnmittees on human research. Thyroid tissue samples were obtained under sterile conditions and immediately minced in RPMI 1640 tissue culture medium. Tissues were incubated with 0.25% trypsin overnight at 4° C. and then dissociated using 0.35% collagenase (Sigma, Milano, ITALY) and 1% trypsin at 37° C. for sixty minutes. Cell suspensions were filtered through double layers of gaus(e and washed twice with serum-free F-12 Ham's Nutrient Modified Medium (F-12; Euroclone Ltd, Wetherby, UNITED KINGDOM). Tumor cells were re-suspended in F-12 with 10% fetal bovine serum and antibiotics, seeded in ninety-six well culture plates (˜2×10^4 cells/well) and incubated at 37° C. in a humidified atmosphere of 5% CO2 and 95% air according to known procedures (Zatelli, M. C. et al., Endocrinology, 2005, 146:2692-8). Approximately twenty-four hours later, the prepared cells were treated with the selected somatostatin agonist and were monitored for hormone secretion and overall viability. Informed consent of the patients was obtained for disclosing clinical investigation and performing the in vitro study.
Calcitonin levels were measured in a conditioned medium from treated and untreated primary cultured cells with the calcitonin-U.S.-IRMA® kit (Biosource Europe, Nivelles, BELGIUM) after a six hour treatment with […] of the selected somatostatin analogs. The intra- and inter-assay variation coefficients were 1.9-2.7% and 1.9-3.3%, respectively. The detection limit was 0.8 pg/ml. Hormone assays were performed in duplicate of conditioned medium from treated cells. Results were obtained by determining the mean value among eight replicates.
In order to investigate the effects of somatostatin analogs on hormone secretion, calcitonin and CgA levels were measured in conditioned media collected from primary cultures derived from the selected eighteen medullary thyroid carcinoma treated with or without each somatostatin analog at 10^−8M for six hours.
According to this criterion, […] as “responders” (group A: primary cultures #3, #5, #6, #7, #11, #12, #13, #14, #15, #16) and nine as “non responders” (group B: primary cultures #1, #2, #4, #8, #9, #10, #17, #18).

A further assay concerns the target SSTR2 (Homo sapiens, UniProt P30874). In words: SSTR receptor binding affinity (Ki), SSTR2. Conditions: read-out: SSTR Specificity Ki SSTR2.
Assay [2] deals with medullary thyroid carcinoma primary cultures. In words: Cell viability of MTC primary cultures (MTT). Type of assay: cell-based, human. Particulars: 10^−8 M, forty-eight hours. As to the method:
Primary cultured cells from 18 selected MTC samples were incubated in ninety six well plates for forty eight hours with each SSTR agonist at 10^−8 M. Control cells were treated with vehicle solution. Cell viability was measured by a colorimetric method among eight replicates from treated and untreated (control) primary cultured cells. […] Data are expressed as the mean±SE percent cell viability reduction vs. untreated control cells. *P<0.05, and **P<0.01 vs. control.
as §1
The effects of the tested somatostatin analogs on medullary thyroid carcinoma primary culture cell viability were assessed with a Cell Proliferation Kit I MTT® (Roche Diagnostics GmbH, Mannheim, GERMANY) which employs a colorimetric method for determining the number of viable cells in proliferation assays. Primary cultured cells were plated in ninety-six multiwell plates (2×10^4 cells/well) and incubated for forty-eight hours in a medium supplemented with 10% fetal bovine serum in the presence or absence of each somatostatin analog at 10^−8M. Treatments were renewed after the first twenty-four hours of incubation.
In order to investigate the effects of somatostatin analogs on medullary thyroid carcinoma cell viability, an MTT assay was performed in primary cultures derived from the eighteen selected medullary thyroid carcinoma samples, treated with or without each somatostatin analog at […] for forty-eight hours. Percent cell viability reduction compared to a control in each primary culture under treatment with each somatostatin analog is reported in Table 6.

A further assay has as its target SSTR4 (Homo sapiens, UniProt P31391). The assay can be described thus: SSTR receptor binding affinity (Ki), SSTR4. Particulars: read-out: SSTR Specificity Ki SSTR4.
Another assay addresses SSTR1 (Homo sapiens, UniProt P30872). The assay can be described thus: SSTR receptor binding affinity (Ki), SSTR1. Particulars: read-out: SSTR Specificity Ki SSTR1.
Another assay addresses SSTR5 (Homo sapiens, UniProt P35346). The assay can be described thus: SSTR receptor binding affinity (Ki), SSTR5. Conditions: read-out: SSTR Specificity Ki SSTR5.
[3] abbreviates: MTC primary culture #1 (non responder).
Setting [4] is: MTC primary culture #2 (non responder).
[5] abbreviates: MTC primary culture #3 (responder).
Where [6] appears, read: MTC primary culture #4 (non responder).
[7] abbreviates: MTC primary culture #5 (responder).
[8] abbreviates: MTC primary culture #6 (responder).
The mark [9] stands for this setting: MTC primary culture #7 (responder).
The mark [10] stands for this setting: MTC primary culture #8 (non responder).
The mark [11] stands for this setting: MTC primary culture #9 (non responder).
Setting [12] is: MTC primary culture #10 (non responder).
Setting [13] is: MTC primary culture #11 (responder).
The mark [14] stands for this setting: MTC primary culture #12 (responder).
Setting [15] is: MTC primary culture #13 (responder).
Where [16] appears, read: MTC primary culture #14 (responder).
Setting [17] is: MTC primary culture #15 (responder).
Where [18] appears, read: MTC primary culture #16 (responder).
Setting [19] is: MTC primary culture #17 (non responder).
Setting [20] is: MTC primary culture #18 (non responder).
Where [21] appears, read: group B (lanreotide non-responsive) mean.

Each structure is given as a SMILES string.

Experimental findings from US20090099094A1, “Use of Somatostatin Agonists to Treat Medullary Thyroid Carcinoma” (priority 2007, published 2009) are described below.

A word on the Ki: it is the dissociation constant of the complex between target and ligand, obtained from inhibition or displacement.

Sequence of SSTR2 (P30874 whole entry): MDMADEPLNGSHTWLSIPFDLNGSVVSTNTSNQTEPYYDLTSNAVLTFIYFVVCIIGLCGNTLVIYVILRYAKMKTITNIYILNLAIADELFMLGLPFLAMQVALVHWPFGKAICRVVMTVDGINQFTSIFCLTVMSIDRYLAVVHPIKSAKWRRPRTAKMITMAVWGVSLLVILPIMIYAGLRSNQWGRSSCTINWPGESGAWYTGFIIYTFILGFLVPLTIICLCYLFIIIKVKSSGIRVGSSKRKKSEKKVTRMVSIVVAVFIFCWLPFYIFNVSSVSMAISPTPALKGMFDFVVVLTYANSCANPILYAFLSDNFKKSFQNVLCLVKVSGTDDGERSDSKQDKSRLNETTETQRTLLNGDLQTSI
Sequence of SSTR5 (P35346 whole entry): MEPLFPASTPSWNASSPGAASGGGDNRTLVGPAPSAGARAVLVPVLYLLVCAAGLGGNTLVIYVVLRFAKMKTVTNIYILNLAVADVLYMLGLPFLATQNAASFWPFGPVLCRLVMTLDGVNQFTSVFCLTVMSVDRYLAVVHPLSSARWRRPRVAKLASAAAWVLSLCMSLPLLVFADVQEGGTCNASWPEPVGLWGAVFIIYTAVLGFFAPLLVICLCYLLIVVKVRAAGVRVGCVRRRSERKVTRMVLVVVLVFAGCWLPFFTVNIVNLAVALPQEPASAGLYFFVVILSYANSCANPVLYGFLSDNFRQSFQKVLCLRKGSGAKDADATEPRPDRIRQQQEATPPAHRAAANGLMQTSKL
Sequence of SSTR3 (P32745 whole entry): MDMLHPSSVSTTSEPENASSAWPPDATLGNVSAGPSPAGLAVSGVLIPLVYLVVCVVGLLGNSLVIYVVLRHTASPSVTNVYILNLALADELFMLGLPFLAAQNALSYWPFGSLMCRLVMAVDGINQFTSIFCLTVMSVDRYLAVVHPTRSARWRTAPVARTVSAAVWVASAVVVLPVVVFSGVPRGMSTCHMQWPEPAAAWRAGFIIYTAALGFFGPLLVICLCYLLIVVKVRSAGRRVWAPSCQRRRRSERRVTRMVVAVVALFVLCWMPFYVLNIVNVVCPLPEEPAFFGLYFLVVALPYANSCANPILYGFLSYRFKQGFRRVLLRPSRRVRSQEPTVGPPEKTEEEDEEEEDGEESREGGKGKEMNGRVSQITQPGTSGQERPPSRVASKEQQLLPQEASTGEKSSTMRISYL
Sequence of SSTR4 (P31391 whole entry): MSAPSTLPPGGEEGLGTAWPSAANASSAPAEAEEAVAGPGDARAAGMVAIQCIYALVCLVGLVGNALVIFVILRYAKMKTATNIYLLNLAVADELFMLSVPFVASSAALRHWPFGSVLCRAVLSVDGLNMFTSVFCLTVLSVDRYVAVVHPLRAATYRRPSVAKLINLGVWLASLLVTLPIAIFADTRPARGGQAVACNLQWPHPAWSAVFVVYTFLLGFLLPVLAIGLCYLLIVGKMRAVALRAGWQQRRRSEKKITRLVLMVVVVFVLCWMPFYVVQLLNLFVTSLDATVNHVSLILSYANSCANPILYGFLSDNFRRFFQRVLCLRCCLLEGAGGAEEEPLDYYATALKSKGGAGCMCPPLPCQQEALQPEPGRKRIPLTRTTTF
Sequence of SSTR1 (P30872 whole entry): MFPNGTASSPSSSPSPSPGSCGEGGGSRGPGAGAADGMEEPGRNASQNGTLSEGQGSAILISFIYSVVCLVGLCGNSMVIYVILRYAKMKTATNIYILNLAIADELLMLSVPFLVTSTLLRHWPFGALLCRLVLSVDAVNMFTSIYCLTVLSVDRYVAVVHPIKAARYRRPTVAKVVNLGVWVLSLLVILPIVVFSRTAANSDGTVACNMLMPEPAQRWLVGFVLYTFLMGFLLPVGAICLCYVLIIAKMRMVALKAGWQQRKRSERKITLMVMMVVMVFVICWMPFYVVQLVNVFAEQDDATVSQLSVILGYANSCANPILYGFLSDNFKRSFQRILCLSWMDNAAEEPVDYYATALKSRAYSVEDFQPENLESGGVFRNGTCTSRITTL

`CC(C)[C@@H]1NC(=O)[C@H](CCCCN)NC(=O)[C@@H](Cc2c[nH]c3ccccc23)NC(=O)[C@H](Cc2ccc(O)c(I)c2)NC(=O)[C@@H](NC(=O)[C@H](N)Cc2ccccc2)CSSC[C@@H](C(=O)N[C@H](C(N)=O)[C@@H](C)O)NC1=O` [Cmpd #4, D-Phe-[Cys-Tyr(I)-D-Trp-Lys-Val-Cys]-Thr-NH2]: the Ki is 133 nM on SSTR3, 0.29 nM at SSTR2, more than 1000 nM at SSTR4 and 1020 nM at SSTR1. Besides, the “% CT secretion inhibition vs. control” value was −10.5% in assay [1] (setting [3]); 5.2% in assay [1] (setting [4]); −33.9% in assay [1] (setting [5]); −10.3% in assay [1] (setting [6]); −15.7% in assay [1] (setting [7]); −12.6% in assay [1] (setting [8]). Moreover, the “% CT secretion inhibition vs. control” value in assay [1] (setting [9]) is on record as −42.6%; in assay [1] (setting [10]), 3.6%; in assay [1] (setting [11]), −5.2%; in assay [1] (setting [12]) it was 12.8%; in assay [1] (setting [13]), −15.7%; in assay [1] (setting [14]), −18.5%. For the same molecule, the “% CT secretion inhibition vs. control” value is on record as −42.8% in assay [1] (setting [15]); 8.4% in assay [1] (setting [16]); −30.6% in assay [1] (setting [17]); −16.2% in assay [1] (setting [18]); 12.7% in assay [1] (setting [19]); 5.3% in assay [1] (setting [20]). The figures for the “calcitonin secretion, change vs. control (signed, negative = reduced)” value in assay [1] (group A (lanreotide responsive) mean) and in assay [1] (setting [21]) were −25% and “not reduced”, respectively. In addition, the “% cell viability reduction vs. control” value in assay [2] (setting [3]) was −14.7%; in assay [2] (setting [4]), −38.3%; in assay [2] (setting [5]), 13.3%; in assay [2] (setting [6]), −11.3%; in assay [2] (setting [7]), 24.7%; in assay [2] (setting [8]) it was −10.8%. For the same molecule, the “% cell viability reduction vs. control” value in assay [2] (setting [9]) is 5.7%; in assay [2] (setting [10]) it was −20.6%; in assay [2] (setting [11]) it was −32.1%; in assay [2] (setting [12]), 6.5%; in assay [2] (setting [13]), 1.4%; in assay [2] (setting [14]), 7.4%. Further, the “% cell viability reduction vs. control” value is given as 9.3% in assay [2] (setting [15]); 1.3% in assay [2] (setting [16]); 12.6% in assay [2] (setting [17]); 15.0% in assay [2] (setting [18]); −2.6% in assay [2] (setting [19]); −7.7% in assay [2] (setting [20]). For the same molecule, the “cell viability, change vs. control (signed, negative = reduced)” value in assay [2] (setting [21]) was −13%.

With `CCCN1C[C@H](CSCC(=O)NCCCC[C@@H](NC(=O)CSC[C@@H]2C[C@@H]3c4cccc5[nH]cc(c45)C[C@H]3N(CCC)C2)C(=O)N[C@H]2CSSC[C@@H](C(=O)N[C@H](C(N)=O)[C@@H](C)O)NC(=O)[C@H](CC)NC(=O)[C@H](CCCCN)NC(=O)[C@@H](Cc3c[nH]c4ccccc34)NC(=O)[C@H](Cc3ccc(O)cc3)NC2=O)C[C@@H]2c3cccc4[nH]cc(c34)C[C@H]21` [Dop2-D-Lys(Dop2)-c[Cys-Tyr-D-Trp-Lys-Abu-Cys]-Thr-NH2], at SSTR5, the Ki is 41.5 nM.
